Measured values reported in patent US4477443A, “Tylosin derivatives, their preparation and pharmaceutical compositions containing them” (Zaidan Hojin Biselbutsu Kagaku Kenkyu Kai (Microbial …, priority 1981, dated 1984).
≈ marks a conversion by molar mass, not a printed value. Where two headings read alike, the source gives them in different places.

Key:
Assay in all cases: antimicrobial activity (MIC), Table I
Type in all cases: cell-based
[1] = test system: Staph. aureus MS 9861; settings: Staphylococcus aureus, MS9861
[2] = test system: E. coli K-12 R-5; settings: Escherichia coli, K12R5
[3] = test system: Staph. aureus 193; settings: Staphylococcus aureus
[4] = test system: Shigella dysenteriae JS 11910; settings: JS11910
[5] = test system: Staph. aureus 209 P; settings: Staphylococcus aureus
[6] = test system: Kleb. pneumoniae PCI 602; settings: Klebsiella pneumoniae, PCI602
[7] = test system: B. subtilis NRRL B-558; settings: Bacillus subtilis, NRRLB558
[8] = test system: Sarcina lutea PCI 1001; settings: Micrococcus luteus, PCI1001
[9] = test system: Sal. enteritidis 1891; settings: Salmonella enterica
[10] = test system: E. coli K-12; settings: Escherichia coli, K12
[11] = test system: E. coli NIHJ; settings: Escherichia coli
[12] = test system: Coryn. bovis 1810; settings: Corynebacterium bovis
[13] = Staph. aureus MS 9861, read-out: MIC
[14] = E. coli K-12 R-5, read-out: MIC
[15] = Staph. aureus 193, read-out: MIC
[16] = Staph. aureus 209 P, read-out: MIC
[17] = Kleb. pneumoniae PCI 602, read-out: MIC
[18] = B. subtilis NRRL B-558, read-out: MIC
[19] = Sarcina lutea PCI 1001, read-out: MIC
[20] = Sal. enteritidis 1891, read-out: MIC
[21] = Coryn. bovis 1810, read-out: MIC

CCC1OC(=O)CC(O)C(C)C(OC2OC(C)CC(N(C)C)C2O)C(CC=O)CC(C)C(=O)C=CC(C)=CC1CN1CCOCC1 (stereo not drawn) [Example 29, 23,4'-dideoxy-23-morpholinomycaminosyl tylonolide]
MIC [1, 13]: 0.78 µg/mL (≈ 1.2 µM) | MIC [2, 14]: 12.5 µg/mL (≈ 19.2 µM) | MIC [3, 15]: 0.39 µg/mL (≈ 0.599 µM) | MIC [4]: 0.39 µg/mL (≈ 0.599 µM) | MIC [5, 16]: 0.39 µg/mL (≈ 0.599 µM) | MIC [6, 17]: 3.12 µg/mL (≈ 4.79 µM) | MIC [7, 18]: 0.39 µg/mL (≈ 0.599 µM) | MIC [8, 19]: < 0.2 µg/mL | MIC [9, 20]: 12.5 µg/mL (≈ 19.2 µM) | MIC ([10]; E. coli K-12, read-out: MIC): 25 µg/mL (≈ 38.4 µM) | MIC ([11]; E. coli NIHJ, read-out: MIC): 3.12 µg/mL (≈ 4.79 µM) | MIC [12, 21]: < 0.2 µg/mL

CCC1OC(=O)CC(O)C(C)C(OC2OC(C)CC(N(C)C)C2O)C(CC=O)CC(C)C(=O)C=CC(C)=CC1CN1CCCCC1CO (stereo not drawn) [Example 31, 23,4'-dideoxy-23-[2-(hydroxymethyl)piperidino]mycaminosyl tylonolide]
MIC [1, 13]: 0.39 µg/mL (≈ 0.574 µM) | MIC [2, 14]: 0.78 µg/mL (≈ 1.15 µM) | MIC [3, 15]: 0.39 µg/mL (≈ 0.574 µM) | MIC [4]: 0.78 µg/mL (≈ 1.15 µM) | MIC [5, 16]: < 0.2 µg/mL | MIC [6, 17]: 0.78 µg/mL (≈ 1.15 µM) | MIC [7, 18]: 0.39 µg/mL (≈ 0.574 µM) | MIC [8, 19]: < 0.2 µg/mL | MIC [9, 20]: 0.39 µg/mL (≈ 0.574 µM) | MIC ([10]; E. coli K-12, read-out: MIC): 0.78 µg/mL (≈ 1.15 µM) | MIC ([11]; E. coli NIHJ, read-out: MIC): 0.39 µg/mL (≈ 0.574 µM) | MIC [12, 21]: 0.39 µg/mL (≈ 0.574 µM)

CCC1OC(=O)CC(O)C(C)C(OC2OC(C)CC(N(C)C)C2O)C(CC=O)CC(C)C(=O)C=CC(C)=CC1CN1CCN(C)CC1 (stereo not drawn) [Example 32, 23,4'-dideoxy-23-(4-methylpiperazin-1-yl)mycaminosyl tylonolide]
MIC [1, 13]: 6.25 µg/mL (≈ 9.41 µM) | MIC [2, 14]: 6.25 µg/mL (≈ 9.41 µM) | MIC [3, 15]: 1.56 µg/mL (≈ 2.35 µM) | MIC [4]: 0.2 µg/mL (≈ 0.301 µM) | MIC [5, 16]: 0.78 µg/mL (≈ 1.17 µM) | MIC [6, 17]: 25 µg/mL (≈ 37.7 µM) | MIC [7, 18]: 1.56 µg/mL (≈ 2.35 µM) | MIC [8, 19]: < 0.2 µg/mL | MIC [9, 20]: 6.25 µg/mL (≈ 9.41 µM) | MIC ([10]; E. coli K-12, read-out: MIC): 25 µg/mL (≈ 37.7 µM) | MIC ([11]; E. coli NIHJ, read-out: MIC): 3.12 µg/mL (≈ 4.7 µM) | MIC [12, 21]: 6.25 µg/mL (≈ 9.41 µM)

CCC1OC(=O)CC(O)C(C)C(OC2OC(C)CC(N(C)C)C2O)C(CC=O)CC(C)C(=O)C=CC(C)=CC1CNC(=O)c1ccccc1 (stereo not drawn) [Example 76, 23-Benzoylamino-23,4'-dideoxymycaminosyl tylonolide]
MIC [1, 13]: 0.78 µg/mL (≈ 1.14 µM) | MIC [2, 14]: 6.25 µg/mL (≈ 9.13 µM) | MIC [3, 15]: 0.39 µg/mL (≈ 0.569 µM) | MIC [4]: 1.56 µg/mL (≈ 2.28 µM) | MIC [5, 16]: 0.39 µg/mL (≈ 0.569 µM) | MIC [6, 17]: 3.12 µg/mL (≈ 4.56 µM) | MIC [7, 18]: 0.78 µg/mL (≈ 1.14 µM) | MIC [8, 19]: < 0.2 µg/mL | MIC [9, 20]: 3.12 µg/mL (≈ 4.56 µM) | MIC ([10]; E. coli K-12, read-out: MIC): 6.25 µg/mL (≈ 9.13 µM) | MIC ([11]; E. coli NIHJ, read-out: MIC): 3.12 µg/mL (≈ 4.56 µM) | MIC [12, 21]: < 0.2 µg/mL

CCOC(=O)NCC1C=C(C)C=CC(=O)C(C)CC(CC=O)C(OC2OC(C)CC(N(C)C)C2O)C(C)C(O)CC(=O)OC1CC (stereo not drawn) [Example 78, 23,4'-Dideoxy-23-ethoxycarbonylaminomycaminosyl tylonolide]
MIC [1, 13]: 0.39 µg/mL (≈ 0.597 µM) | MIC [2, 14]: 6.25 µg/mL (≈ 9.57 µM) | MIC [3, 15]: < 0.2 µg/mL | MIC [4]: 1.56 µg/mL (≈ 2.39 µM) | MIC [5, 16]: < 0.2 µg/mL | MIC [6, 17]: 3.12 µg/mL (≈ 4.78 µM) | MIC [7, 18]: 0.39 µg/mL (≈ 0.597 µM) | MIC [8, 19]: < 0.2 µg/mL | MIC [9, 20]: 3.12 µg/mL (≈ 4.78 µM) | MIC ([10]; E. coli K-12, read-out: MIC): 12.5 µg/mL (≈ 19.1 µM) | MIC ([11]; E. coli NIHJ, read-out: MIC): 3.12 µg/mL (≈ 4.78 µM) | MIC [12, 21]: < 0.2 µg/mL

CCC1OC(=O)CC(O)C(C)C(OC2OC(C)CC(N(C)C)C2O)C(CC=O)CC(C)C(=O)C=CC(C)=CC1CNC(=O)Oc1ccccc1 (stereo not drawn) [Example 80, 23,4'-Dideoxy-23-phenoxycarbonylaminomycaminosyl tylonolide]
MIC [1]: < 0.2 µg/mL | MIC [2]: 6.25 µg/mL (≈ 8.92 µM) | MIC [3]; 193: < 0.2 µg/mL | MIC [4]: 0.78 µg/mL (≈ 1.11 µM) | MIC ([5]; 209P): < 0.2 µg/mL | MIC [6]: 1.56 µg/mL (≈ 2.23 µM) | MIC [7]: 0.39 µg/mL (≈ 0.556 µM) | MIC [8]: < 0.2 µg/mL | MIC ([9]; ENTERITIDIS): 1.56 µg/mL (≈ 2.23 µM) | MIC [10]: 6.25 µg/mL (≈ 8.92 µM) | MIC [11]: 3.12 µg/mL (≈ 4.45 µM) | MIC [12]; 1810: < 0.2 µg/mL

CCC1OC(=O)CC(O)C(C)C(OC2OC(C)CC(N(C)C)C2O)C(CC=O)CC(C)C(=O)C=CC(C)=CC1CN(CC)C(=O)OC (stereo not drawn) [Example 83, 23,4'-Dideoxy-23-N-ethylmethoxycarbonylaminomycaminosyl tylonolide]
MIC [1, 13]: 0.39 µg/mL (≈ 0.585 µM) | MIC [2, 14]: 12.5 µg/mL (≈ 18.7 µM) | MIC [3, 15]: < 0.2 µg/mL | MIC [4]: 1.56 µg/mL (≈ 2.34 µM) | MIC [5, 16]: < 0.2 µg/mL | MIC [6, 17]: 12.5 µg/mL (≈ 18.7 µM) | MIC [7, 18]: < 0.2 µg/mL | MIC [8, 19]: < 0.2 µg/mL | MIC [9, 20]: 6.25 µg/mL (≈ 9.37 µM) | MIC ([10]; E. coli K-12, read-out: MIC): 12.5 µg/mL (≈ 18.7 µM) | MIC ([11]; E. coli NIHJ, read-out: MIC): 6.25 µg/mL (≈ 9.37 µM) | MIC [12, 21]: < 0.2 µg/mL

CCC1OC(=O)CC(O)C(C)C(OC2OC(C)CC(N(C)C)C2O)C(CC=O)CC(C)C(=O)C=CC(C)=CC1CN(CC)C(=O)Oc1ccccc1 (stereo not drawn) [Example 85, 23,4'-Dideoxy-23-N-ethylphenoxycarbonylaminomycaminosyl tylonolide]
MIC [1]: 0.39 µg/mL (≈ 0.535 µM) | MIC [2]: 12.5 µg/mL (≈ 17.1 µM) | MIC [3]; 193: 0.39 µg/mL (≈ 0.535 µM) | MIC [4]: 0.78 µg/mL (≈ 1.07 µM) | MIC ([5]; 209P): < 0.2 µg/mL | MIC [6]: 3.12 µg/mL (≈ 4.28 µM) | MIC [7]: < 0.2 µg/mL | MIC [8]: < 0.2 µg/mL | MIC ([9]; ENTERITIDIS): 12.5 µg/mL (≈ 17.1 µM) | MIC [10]: 12.5 µg/mL (≈ 17.1 µM) | MIC [11]: 12.5 µg/mL (≈ 17.1 µM) | MIC [12]; 1810: < 0.2 µg/mL
